Reference: patent US11021435B2, “Serotonin receptor-targeting compounds and methods” (priority 2014, dated 2021)
pEC50, pKi: −log10 of the molar value. Entries after “also recorded” stand apart in the source; their conditions may differ.

What was measured:
[1] = biological target: T1, 5-HT2C receptors (5-HT2C-INI) (Homo sapiens, UniProt P28335); assay: Binding affinity, HEK293 cells transiently over-expressing human 5-HT2C; conditions: human 5-HT2C-INI
T1 construct: expressed in transfected cells; host or cells: HEK293, transient
T1 sequence (P28335 33-458): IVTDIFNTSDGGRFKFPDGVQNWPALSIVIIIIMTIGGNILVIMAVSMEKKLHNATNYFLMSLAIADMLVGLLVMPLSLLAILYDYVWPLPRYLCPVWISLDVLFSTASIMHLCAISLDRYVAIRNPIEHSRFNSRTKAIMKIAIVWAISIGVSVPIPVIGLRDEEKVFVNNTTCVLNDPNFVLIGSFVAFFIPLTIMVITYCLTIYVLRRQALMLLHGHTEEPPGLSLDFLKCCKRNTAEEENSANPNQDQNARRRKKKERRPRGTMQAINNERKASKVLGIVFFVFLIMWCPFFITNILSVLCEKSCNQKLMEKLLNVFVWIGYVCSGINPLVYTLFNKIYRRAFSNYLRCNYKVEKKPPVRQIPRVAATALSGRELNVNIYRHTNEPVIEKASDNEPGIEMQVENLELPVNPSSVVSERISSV

dopamine D2 receptor = biological target: T2, dopamine D2 receptor (Homo sapiens, UniProt P14416); assay: Off-target binding affinity, dopamine D2
T2 construct: expressed in transfected cells; host or cells: HEK293, transient
T2 sequence (P14416 whole entry): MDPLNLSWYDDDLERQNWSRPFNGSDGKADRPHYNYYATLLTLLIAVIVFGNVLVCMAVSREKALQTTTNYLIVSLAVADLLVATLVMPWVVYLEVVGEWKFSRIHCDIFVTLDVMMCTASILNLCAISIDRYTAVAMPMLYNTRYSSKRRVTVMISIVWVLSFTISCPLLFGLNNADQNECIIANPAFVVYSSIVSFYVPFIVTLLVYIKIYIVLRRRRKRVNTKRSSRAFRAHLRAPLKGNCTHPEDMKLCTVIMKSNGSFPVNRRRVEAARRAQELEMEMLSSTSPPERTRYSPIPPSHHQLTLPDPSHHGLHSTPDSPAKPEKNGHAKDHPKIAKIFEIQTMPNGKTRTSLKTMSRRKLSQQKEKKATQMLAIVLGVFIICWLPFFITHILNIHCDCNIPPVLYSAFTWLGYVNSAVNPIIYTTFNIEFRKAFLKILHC

adrenergic α1B receptor = biological target: T3, adrenergic α1B receptor (Homo sapiens, UniProt P35368); assay: Off-target binding affinity, adrenergic α1B
T3 construct: expressed in transfected cells; host or cells: HEK293, transient
T3 sequence (P35368 1-520): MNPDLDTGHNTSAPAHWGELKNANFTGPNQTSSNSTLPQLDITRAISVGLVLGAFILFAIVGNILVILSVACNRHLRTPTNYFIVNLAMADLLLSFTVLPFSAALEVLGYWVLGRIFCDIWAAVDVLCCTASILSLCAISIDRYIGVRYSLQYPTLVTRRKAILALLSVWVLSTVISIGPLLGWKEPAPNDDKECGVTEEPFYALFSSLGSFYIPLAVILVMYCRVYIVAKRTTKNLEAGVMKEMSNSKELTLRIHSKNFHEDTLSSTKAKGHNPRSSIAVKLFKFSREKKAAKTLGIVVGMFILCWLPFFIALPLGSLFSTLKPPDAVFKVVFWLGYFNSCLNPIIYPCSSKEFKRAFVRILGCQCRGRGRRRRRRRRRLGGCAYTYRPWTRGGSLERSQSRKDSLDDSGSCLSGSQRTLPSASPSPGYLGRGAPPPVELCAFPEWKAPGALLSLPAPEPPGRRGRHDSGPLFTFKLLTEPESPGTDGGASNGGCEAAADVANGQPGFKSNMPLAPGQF

[2] = biological target: T4, mouse 5-HT2C receptor (m5-HT2C-VNV) (Mus musculus, UniProt P34968, I157V/I161V); assay: Binding affinity, HEK293 cells transiently expressing mouse 5-HT2C
T4 construct: expressed in transfected cells; host or cells: HEK293, transient
T4 sequence (P34968 33-459 I157V/I161V): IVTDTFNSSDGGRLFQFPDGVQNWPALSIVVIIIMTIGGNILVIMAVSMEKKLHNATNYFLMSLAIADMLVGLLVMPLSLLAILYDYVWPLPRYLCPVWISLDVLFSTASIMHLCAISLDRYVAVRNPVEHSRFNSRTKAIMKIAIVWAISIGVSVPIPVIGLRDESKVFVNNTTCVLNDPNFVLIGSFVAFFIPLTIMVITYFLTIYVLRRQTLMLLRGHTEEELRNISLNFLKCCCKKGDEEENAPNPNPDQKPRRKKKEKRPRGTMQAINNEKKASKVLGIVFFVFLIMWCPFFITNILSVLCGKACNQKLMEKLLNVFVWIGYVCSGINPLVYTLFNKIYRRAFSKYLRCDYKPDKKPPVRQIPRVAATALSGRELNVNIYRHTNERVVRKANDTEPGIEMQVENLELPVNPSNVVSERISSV

[3] = biological target: T5, human 5-HT7 receptors (5-HT7a) (Homo sapiens, UniProt P34969); assay: Radioligand competition binding ([3H]5-CT), HEK293 cells stably expressing human 5-HT7 receptors; conditions: for pKi: human 5-HT7a, mean (SEM), at least three independent experiments, read-out: Affinity Ki 5-HT7
T5 construct: expressed in transfected cells
T5 sequence (P34969 1-445 isoform P34969-2): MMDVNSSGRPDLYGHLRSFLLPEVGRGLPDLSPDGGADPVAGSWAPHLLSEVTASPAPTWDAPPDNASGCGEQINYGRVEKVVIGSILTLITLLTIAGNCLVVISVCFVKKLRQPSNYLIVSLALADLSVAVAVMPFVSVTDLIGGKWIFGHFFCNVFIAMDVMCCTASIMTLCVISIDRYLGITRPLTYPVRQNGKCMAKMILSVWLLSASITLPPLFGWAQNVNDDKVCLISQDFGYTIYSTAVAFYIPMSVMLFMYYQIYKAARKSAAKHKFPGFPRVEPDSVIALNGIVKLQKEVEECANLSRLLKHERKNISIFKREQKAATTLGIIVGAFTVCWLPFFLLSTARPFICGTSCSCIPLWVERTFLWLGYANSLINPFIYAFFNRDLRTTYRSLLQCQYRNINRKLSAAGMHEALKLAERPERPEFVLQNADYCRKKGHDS
Excerpt: FIGS. 4A-4C show the effects of 5-FPT are stereospecific. […] Data are expressed as the mean±SEM.

5-HT2C = biological target: T6, 5-HT2C (Homo sapiens, UniProt P28335); assay: Functional assay at 5-HT2C, relative to 5-HT; format: cell-based; parameters: expressed in transfected cells; host or cells: HEK293, transient
T6 sequence (P28335 33-458): T1 sequence (P28335 33-458)

5-HT2B [4] = biological target: T7, 5-HT2B (Homo sapiens, UniProt P41595); assay: Functional assay at 5-HT2B, relative to 5-HT; format: cell-based; parameters: expressed in transfected cells; host or cells: HEK293, transient; conditions: for Functional activity at 5-HT2B, in words: up to 100 μM
T7 sequence (P41595 whole entry): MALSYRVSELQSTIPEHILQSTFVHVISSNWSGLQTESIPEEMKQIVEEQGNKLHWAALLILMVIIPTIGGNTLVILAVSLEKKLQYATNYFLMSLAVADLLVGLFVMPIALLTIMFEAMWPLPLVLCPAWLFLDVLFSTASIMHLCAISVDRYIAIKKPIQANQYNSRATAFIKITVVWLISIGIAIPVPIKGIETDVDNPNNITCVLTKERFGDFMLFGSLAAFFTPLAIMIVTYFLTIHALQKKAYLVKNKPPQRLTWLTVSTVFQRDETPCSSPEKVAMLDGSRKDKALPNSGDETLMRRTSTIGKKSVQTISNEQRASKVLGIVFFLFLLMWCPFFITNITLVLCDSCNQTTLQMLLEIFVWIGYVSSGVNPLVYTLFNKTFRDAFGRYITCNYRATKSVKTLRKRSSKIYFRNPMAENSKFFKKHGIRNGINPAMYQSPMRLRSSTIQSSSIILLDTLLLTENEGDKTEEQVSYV

C57BI/6J mice = assay: DOI-elicited head-twitch response (HTR) in C57BI/6J mice; conditions: for DOI-elicited HTR: C57BI/6J mice, 5-FPT up to 5.6 mg/kg, AS-19 10 mg/kg, DPAT 0.5 mg/kg
Excerpt: The 5-HT2A receptor is a predominant 5-HT receptor in the cortex, and serves important excitation modulation functions on glutamate pyramidal and GABA neurons.

5-HT2A = 5-HT2A (Homo sapiens, UniProt P28223); assay: Functional assay at 5-HT2A, relative to 5-HT; format: cell-based; parameters: expressed in transfected cells; host or cells: HEK293, transient; conditions: for Functional activity at 5-HT2A, in words: no activation stated up to 100 μM
5-HT2A, sequence (P28223 whole entry): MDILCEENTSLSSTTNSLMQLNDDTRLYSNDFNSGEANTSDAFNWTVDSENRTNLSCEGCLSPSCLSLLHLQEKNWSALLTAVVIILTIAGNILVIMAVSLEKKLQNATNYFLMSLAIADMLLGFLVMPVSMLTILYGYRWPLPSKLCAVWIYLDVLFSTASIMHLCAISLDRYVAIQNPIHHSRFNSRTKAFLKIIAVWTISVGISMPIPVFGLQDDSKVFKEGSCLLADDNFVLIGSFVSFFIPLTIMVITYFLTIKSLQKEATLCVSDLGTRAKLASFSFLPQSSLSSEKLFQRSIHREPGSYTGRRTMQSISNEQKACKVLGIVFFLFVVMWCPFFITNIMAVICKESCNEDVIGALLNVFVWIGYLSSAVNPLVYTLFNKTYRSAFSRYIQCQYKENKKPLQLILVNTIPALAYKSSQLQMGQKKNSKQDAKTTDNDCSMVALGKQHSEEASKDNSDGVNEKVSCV

5-HT2B [5] = biological target: T7, 5-HT2B; assay: Binding affinity, HEK293 cells transiently over-expressing human 5-HT2B; parameters: expressed in transfected cells; host or cells: HEK293, transient; conditions: mean (SEM)
mouse 5-HT2A receptor = biological target: T8, mouse 5-HT2A receptor (Mus musculus, UniProt P35363); assay: Binding affinity, HEK293 cells transiently expressing mouse 5-HT2A; conditions: for pKi: mouse, mean (SEM), read-out: Affinity Ki m5-HT2A
T8 construct: expressed in transfected cells; host or cells: HEK293, transient
T8 sequence (P35363 whole entry): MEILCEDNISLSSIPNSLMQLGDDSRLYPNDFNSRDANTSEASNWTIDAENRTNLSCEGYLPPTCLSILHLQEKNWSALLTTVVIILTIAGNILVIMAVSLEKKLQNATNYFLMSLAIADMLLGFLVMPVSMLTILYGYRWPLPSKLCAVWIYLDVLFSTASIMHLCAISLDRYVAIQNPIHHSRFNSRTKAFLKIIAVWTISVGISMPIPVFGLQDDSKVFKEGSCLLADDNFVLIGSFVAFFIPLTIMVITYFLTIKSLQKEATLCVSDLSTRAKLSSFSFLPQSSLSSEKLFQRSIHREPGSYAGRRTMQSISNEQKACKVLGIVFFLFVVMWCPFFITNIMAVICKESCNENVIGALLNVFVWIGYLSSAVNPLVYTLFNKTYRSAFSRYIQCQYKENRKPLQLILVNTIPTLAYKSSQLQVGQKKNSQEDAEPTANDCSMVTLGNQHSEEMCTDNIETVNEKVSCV

histamine H1 receptor = biological target: T9, histamine H1 receptor (Homo sapiens, UniProt P35367); assay: Off-target binding affinity, histamine H1
T9 construct: expressed in transfected cells; host or cells: HEK293, transient
T9 sequence (P35367 whole entry): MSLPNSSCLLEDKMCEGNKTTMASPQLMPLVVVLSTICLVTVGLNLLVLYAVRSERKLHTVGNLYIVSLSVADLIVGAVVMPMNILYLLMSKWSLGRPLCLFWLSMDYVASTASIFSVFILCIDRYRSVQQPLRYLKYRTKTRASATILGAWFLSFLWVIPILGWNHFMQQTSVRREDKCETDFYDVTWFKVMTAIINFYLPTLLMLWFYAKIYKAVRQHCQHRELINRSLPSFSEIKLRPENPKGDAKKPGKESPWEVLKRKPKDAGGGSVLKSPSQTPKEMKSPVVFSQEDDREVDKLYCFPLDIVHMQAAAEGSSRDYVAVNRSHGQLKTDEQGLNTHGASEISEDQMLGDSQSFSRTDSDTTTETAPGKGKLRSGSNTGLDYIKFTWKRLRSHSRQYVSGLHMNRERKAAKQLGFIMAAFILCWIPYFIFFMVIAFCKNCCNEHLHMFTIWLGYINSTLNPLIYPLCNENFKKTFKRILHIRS

[6] = % of maximal response relative to 5-HT, mean (SEM)

Compound | pKi (dopamine D2 receptor) | pKi (adrenergic α1B receptor) | pKi [3] | Functional activity at 5-HT2C, in words (5-HT2C) | Functional activity at 5-HT2B, in words (5-HT2B [4]) | DOI-elicited HTR (C57BI/6J mice; DOI 1 mg/kg) | Functional activity at 5-HT2A, in words (5-HT2A) | pKi (5-HT2B [5]) | pKi (mouse 5-HT2A receptor) | pKi (histamine H1 receptor) | further results
CN(C)C1CCc2c(cccc2-c2ccccc2F)C1 (single isomer, unassigned; (+)) [(+)-5-FPT, 5-(2′-fluorophenyl)-N,N-dimethyl-1,2,3,4-tetrahydronaphthalen-2-amine] | < 6.00 | < 5.00 | 8.24 | nearly full-efficacy agonist | devoid of 5-HT2B activity | dose-dependently attenuated the DOI-elicited HTR; also recorded: significantly attenuated the DOI HTR; also recorded: dose-dependently blocks | very low potency, partial agonist | 7.22 | 6.20 | < 6.00 | pKi ([1]; mean (SEM)): 6.57; Mouse 5-HT2C versus human 5-HT2C receptor affinity [2]: ~2.5 times; pKi ([2]; mouse m5-HT2C-VNV, mean (SEM)): 6.19; 5-HT7 affinity, (+)-enantiomer more potent than (−)-enantiomer ([3]; ratio of Ki values): about 80 times; Emax (5-HT2C; [6]): 87%; pEC50 (5-HT2C; mean (SEM)): 6.64; EC50 5-HT2B (5-HT2B [4]; Inactive = no activation up to 100 μM): Inactive; EMAX 5-HT2B (5-HT2B [4]; relative to 5-HT, Inactive = no activation up to 100 μM): Inactive; DOI-elicited HTR, compound given 120 min (2 hrs) before testing (C57BI/6J mice; 5.6 mg/kg, DOI 1 mg/kg): remained significant; also recorded: retains efficacy; DOI-elicited HTR, compound given 180 min (3 hrs) before testing (C57BI/6J mice; 5.6 mg/kg, DOI 1 mg/kg): did not block the DOI HTR; DOI-elicited HTR after oral administration (C57BI/6J mice; oral gavage 3 mg/kg 10 min prior to subcutaneous 1 mg/kg DOI): significantly attenuated the DOI HTR; also recorded: attenuates the HTR; Emax (5-HT2A; [6]): 39%; pEC50 (5-HT2A; mean (SEM)): 5.45
CN(C)C1CCc2c(cccc2-c2ccccc2F)C1 (single isomer, unassigned; (-)) [(−)-5-FPT, 5-(2′-fluorophenyl)-N,N-dimethyl-1,2,3,4-tetrahydronaphthalen-2-amine] | < 6.00 | < 5.00 | 6.34 | low-potency | did not activate | substantially less efficacious than (+)-5-FPT | did not activate | 6.16 | 6.83 | < 6.00 | Ki ([1]; bound given in μM): > 1 µM; Ki ([2]; mouse m5-HT2C-VNV, bound given in μM): > 1 µM; Higher affinity than (+)-5-FPT at mouse 5-HT2A receptors (mouse 5-HT2A receptor): ~4 fold
